Source: patent publication US6410588B1, “Use of cannabinoids as anti-inflammatory agents” (priority 1998, dated 2002)
“Also recorded” adds a separate entry of the source.

How the values were obtained:
[1] = system: TNFα release; assay: TNFα release by LPS-stimulated human PBMC; format: cell-based; details: for TNF α: LPS 10 ng/ml 24 hours
Method: CBD was dissolved in ethanol/DMSO.
Peripheral blood mononuclear cells (PBMC) were isolated from the whole blood of healthy donors by Ficoll Hypaque gradient. […] After this 6 hour pretreatment period, the cells were stimulated with either LPS from Salmonella typhimirium, 10 ng/ml, for 24 hours (for TNF and IL-1β) or with PHA, 5 μg/ml, for 72 hours (for IFNγ) Viability of the PBMC was assessed with the MTT test.
Human PBMC were cultured and stimulated with or without CBD, as described in Materials and Methods. The stimulus for TNF and IL-1 production was LPS, the stimulus for IFNγ production was PHA. The results are the mean of triplicate wells±SEM. ND=not done.

[2] = system: schizophrenia; details: in vivo; cited from earlier work
[3] = system: IL-11; assay: human rheumatoid synovial cell IL-11 production (ELISA); format: cell-based; details: for IL-11, mean: 48 hours culture
Method: (§1) Synovial membrane tissue was obtained from a patient fulfilling the revised American College of Rheumatology criteria for rheumatoid arthritis who underwent joint replacement surgery. Synovial cell cultures were prepared as described. Briefly, synovial membrane tissue was digested with collagenase type A (1 mg/ml) and DNAase I (0.15 mg/ml) in RPMI 1640 containing 5% FCS for 2 hours at 37° C.
(§2) Similarly, rheumatoid synovial cells spontaneously produce cytokines when cultured in vitro. […] With restricted number of human synovial cells in this sample, the optimal dose for inhibiting TNFα may have been missed.

[4] = molecular target: CB2 (Homo sapiens, UniProt P34972); details: cited from earlier work
[5] = system: TPA-induced erythema; details: applied topically; cited from earlier work
[6] = system: nitric oxide (NO); details: macrophages activated by LPS and IFNγ; cited from earlier work
[7] = system: mRNA of IL-1, IL-6 and TNFα; details: BALB/C mice injected with cannabidiol; cited from earlier work
[8] = system: nitric oxide (NO) generation; assay: nitric oxide (NO) generation by Thioglycollate induced macrophages, Griess reagent; format: cell-based, mouse
[9] = system: serum TNFα; assay: serum TNFα level after LPS stimulation (bioassay); format: in vivo, mouse (C57BL/6); details: 10 mg/kg (200 μg/mouse) ip or s.c. with 100 μg LPS ip; 90 min
Method: After 90 min. the mice were bled and serum TNFα level was determined by bioassay.

[10] = system: IFNγ; details: cited from earlier work
[11] = system: chronic CIA; assay: chronic CIA, oral feeding of CBD; format: in vivo, mouse; details: 25 mg/kg oral daily
Method: Controls were fed vehicle (olive oil).
For the chronic experiments, 6 weeks old mice were immunized with mouse CII (100 μg CII i.d.=intradermal). From day 30 after immunization onwards, the mice developed a chronic relapsing arthritis, which was monitored for 5 weeks, in the same way as described above.
For the chronic experiment with mouse CII, mice were treated from the first symptoms of arthritis every other day, for 5 weeks. […] Again, mice injected with Vehicle alone served as controls (n=7). For the oral route, the treatment was administered daily at a dose of 25 mg/kg (n=6) and control mice were fed olive oil (n=6).

[12] = system: IL-6; assay: human rheumatoid synovial cell IL-6 production (ELISA); format: cell-based; details: for IL-6, mean: 48 hours culture
Method: as §1, §2

[13] = system: EAE; assay: experimental autoimmune encephalomyelitis (EAE); format: in vivo, mouse (SJL/J)
[14] = system: anticonvulsant effects; details: in vivo; cited from earlier work
[15] = system: IL-1; details: cited from earlier work
[16] = system: Thioglycollate-elicited granulocytes; assay: viability of granulocytes in the ROI test; format: cell-based, mouse (C57BL/6)
Method: Thioglycollate-elicited granulocytes were harvested from C57BL/6 mice by sterile lavage with PBS 18 hrs. after intraperitoneal injection with 1.5 ml thioglycollate medium (1.5 ml in 3% solution). The cells were washed and resuspended at 5×10^5 cells/ml in Hanks' buffered salt solution without phenol red, and distributed at 0.5 ml/tube into luminometer plastic tubes. […] The tube was inserted into luminometer (Biolumate LB 95 oot Berhold Wildbad Germany) which had been prewarmed to 37° C. The granulocyte luminol-enhanced chemiluminescence response to zymosan was considered as the positive control.

[17] = LPS 1 μg/ml + IFNγ 10 U/ml, CBD 2 μg/ml
[18] = LPS 1 μg/ml + IFNγ 10 U/ml, CBD 4 (μg/ml)
[19] = LPS 1 μg/ml + IFNγ 10 U/ml, CBD 6 (μg/ml)
[20] = LPS 1 μg/ml + IFNγ 10 U/ml, CBD 8 (μg/ml)

Chain of CB2 (P34972 whole entry, species assumed): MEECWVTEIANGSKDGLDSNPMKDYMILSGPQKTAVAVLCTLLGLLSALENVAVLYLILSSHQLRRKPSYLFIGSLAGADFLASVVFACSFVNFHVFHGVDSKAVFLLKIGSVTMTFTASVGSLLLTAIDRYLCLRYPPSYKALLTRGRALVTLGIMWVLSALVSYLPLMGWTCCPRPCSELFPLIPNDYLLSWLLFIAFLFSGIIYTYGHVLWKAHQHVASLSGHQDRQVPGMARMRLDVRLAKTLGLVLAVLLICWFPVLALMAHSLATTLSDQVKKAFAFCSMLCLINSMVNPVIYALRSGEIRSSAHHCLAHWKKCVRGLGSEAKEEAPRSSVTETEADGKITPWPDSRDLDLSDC

SMILES: C=C(C)[C@@H]1CCC(C)=C[C@H]1c1c(O)cc(CCCCC)cc1O [CBD, Cannabidiol]
- TNF α ([1]; CBD 0.1 μg/ml, mean of triplicate wells ± SEM): 2959 ± 434 pg/mL
- TNF α ([1]; CBD 1 μg/ml, mean ± SEM): 2503 ± 181 pg/mL
- TNF α ([1]; CBD 2.5 μg/ml, mean ± SEM): 3071 ± 296 pg/mL
- TNF α ([1]; CBD 5 μg/ml, mean ± SEM): 4152 ± 499 pg/mL
- TNF α ([1]; CBD 10 μg/ml, mean ± SEM): 10,964 ± 1714 pg/ml
- TNF α ([1]; CBD 20 μg/ml, mean ± SEM): 15,071 ± 2594 pg/ml
- TNF α ([1]; CBD 30 μg/ml, mean ± SEM): 20,824 ± 1046 pg/ml
- effect on LPS-induced TNFα release (in words) ([1]; higher concentrations of CBD): increased their release
- effect on LPS-induced TNFα release (in words) ([1]; lower concentrations of CBD (0.1 to 5 μg/ml)): significantly suppressed
- antipsychotic effects in schizophrenia [2]: antipsychotic effects
- IL-11 release (in words) [3]: dose-dependent inhibition
- IL-11, mean ([3]; CBD 0.1 μg/ml): 2151 pg/mL
- IL-11, mean ([3]; CBD 1 μg/ml): 2059 pg/mL
- IL-11, mean ([3]; CBD 20 μg/ml): 100 pg/mL
- binding to peripheral receptor CB2 [4]: does not bind
- TPA-induced erythema [5]: reduce TPA-induced erythema
- nitric oxide (NO) production [6]: inhibited
- level of mRNA of IL-1, IL-6 and TNFα [7]: did not show significant change
- % INHIBITION of NO, 24 h [8, 17]: 14%
- NO, 24 h [8, 17]: 12 nM
- NO, 48 h ([8]; LPS 1 μg/ml + IFNγ 10 U/ml, CBD 2 (μg/ml)): 25.4 nM
- % INHIBITION of NO, 24 h [8, 18]: 51%
- NO, 24 h [8, 18]: 6.9 nM
- NO, 48 h [8, 18]: 21.3 nM
- % INHIBITION of NO, 24 h [8, 19]: 61%
- NO, 24 h [8, 19]: 5.5 nM
- NO, 48 h [8, 19]: 18.1 nM
- % INHIBITION of NO, 24 h [8, 20]: 99%
- NO, 24 h [8, 20]: 0.2 nM
- % INHIBITION of NO, 48 h [8, 20]: 85%
- NO, 48 h [8, 20]: 3.1 nM
- % INHIBITION of NO, 24 h ([8]; LPS 1 μg/ml, CBD 2 (μg/ml)): 32%
- NO, 24 h ([8]; LPS 1 μg/ml, CBD 2 (μg/ml)): 3.7 nM
- % INHIBITION of NO, 48 h ([8]; LPS 1 μg/ml, CBD 2 (μg/ml)): 9%
- NO, 48 h ([8]; LPS 1 μg/ml, CBD 2 (μg/ml)): 6.7 nM
- % INHIBITION of NO, 24 h ([8]; LPS 1 μg/ml, CBD 4 (μg/ml)): 90%
- NO, 24 h ([8]; LPS 1 μg/ml, CBD 4 (μg/ml)): 0.5 nM
- % INHIBITION of NO, 48 h ([8]; LPS 1 μg/ml, CBD 4 (μg/ml)): 37%
- NO, 48 h ([8]; LPS 1 μg/ml, CBD 4 (μg/ml)): 4.6 nM
- % INHIBITION of NO, 24 h ([8]; LPS 1 μg/ml, CBD 6 (μg/ml)): 99%
- NO, 24 h ([8]; LPS 1 μg/ml, CBD 6 (μg/ml)): 0.1 nM
- % INHIBITION of NO, 48 h ([8]; LPS 1 μg/ml, CBD 6 (μg/ml)): 71%
- NO, 48 h ([8]; LPS 1 μg/ml, CBD 6 (μg/ml)): 2.1 nM
- % INHIBITION of NO, 24 h ([8]; LPS 1 μg/ml, CBD 8 (μg/ml)): 99%
- NO, 24 h ([8]; LPS 1 μg/ml, CBD 8 (μg/ml)): 0.1 nM
- % INHIBITION of NO, 48 h ([8]; LPS 1 μg/ml, CBD 8 (μg/ml)): 95%
- NO, 48 h ([8]; LPS 1 μg/ml, CBD 8 (μg/ml)): 0.4 nM
- effect on nitric oxide production (in words) ([8]; higher concentrations of CBD): inhibit nitric oxide production
- effect on nitric oxide production (in words) ([8]; low concentrations of CBD): activate nitric oxide production
- serum TNFα level (in words) [9]: decreases serum TNFα production; also recorded: reduces serum TNFα levels
- IFNγ synthesis ([10]; high concentrations (5-24 μg/ml)): completely blocked IFNγ synthesis
- IFNγ production ([10]; low concentrations): increase IFNγ production
- progression of chronic CIA (in words) [11]: suppression of the progression of chronic CIA
- area under the curve of arthritis score ([11]; controls 72.3): 49.7
- IL-6 release (in words) [12]: dose-dependent inhibition
- IL-6, mean ([12]; CBD 0.1 μg/ml): 281 ng/mL
- IL-6, mean ([12]; CBD 1 μg/ml): 326 ng/mL
- IL-6, mean ([12]; CBD 20 μg/ml): 125 ng/mL
- suppression of EAE (in words) ([13]; 10 mg/kg): markedly suppresses EAE
- Duration of EAE ([13]; CBD 10 mg/kg i.p. once a day for 14 days): 2.16 days
- Incidence of EAE ([13]; CBD 10 mg/kg i.p. once a day for 14 days, 6 SJL/J mice): 2/6
- Mean maximum score (EAE) ([13]; CBD 10 mg/kg i.p. once a day for 14 days, six point scale 0-6): 1
- anticonvulsant effects [14]: anticonvulsant effects
- IL-1 production [15]: decreased
- cell viability at the end of the experiment ([16]; CBD 6 μg/ml): All cells were viable
- cells available (viable) ([16]; after 1-2 hours of CBD treatment, 6 μg/ml): about 100%
